Source: publication PMC6001238, “Iterative Chemical Engineering of Vancomycin Leads to Novel Vancomycin Analogs With a High in Vitro Therapeutic Index” (Frontiers in Microbiology, 2018)
Values after ≈ are worked out from the molar mass of the structure shown.

Assays:
[1] = tested on: E. faecalis VSE 1; experiment: MIC, broth microdilution, vancomycin-sensitive E. faecalis (VSE 1); format: cell-based, Enterococcus faecalis; details: for MIC: Enterococcus faecalis VSE 1 (vancomycin-sensitive), read-out: MIC; for MIC-fold improvement vs. vancomycin: VSE 1, ratio of MIC of vancomycin and MIC of analogue
Description: (§1) The minimum inhibitory concentration (MIC) was determined using the broth microdilution method according to the antimicrobial susceptibility testing standards of the clinical and laboratory standards institute ([Clinical and Laboratory Standards Institute [CLSI], 2012]). Ultrapure water and non-inoculated broth were used as controls. In one case, a final concentration of 10 μM vancomycin was included with the vancomycin analog or control antibiotic.

[2] = tested on: E. faecalis VRE 6; experiment: MIC, broth microdilution, vancomycin-resistant E. faecalis VRE 6 (VanA); format: cell-based, Enterococcus faecalis; details: for MIC: Enterococcus faecalis VRE 6 (vancomycin-resistant), read-out: MIC; for MIC-fold improvement vs. vancomycin: VRE 6, ratio of MIC of vancomycin and MIC of analogue
Description: as §1

[3] = tested on: E. faecalis VRE 53; experiment: MIC, broth microdilution, vancomycin-resistant E. faecalis VRE 53 (VanA); format: cell-based, Enterococcus faecalis; details: for MIC: Enterococcus faecalis VRE 53 (vancomycin-resistant), read-out: MIC; for MIC-fold improvement vs. vancomycin: VRE 53, ratio of MIC of vancomycin and MIC of analogue
Description: as §1

[4] = tested on: E. faecalis VRE 29; experiment: MIC, broth microdilution, vancomycin-resistant E. faecalis VRE 29 (VanA); format: cell-based, Enterococcus faecalis; details: for MIC: Enterococcus faecalis VRE 29 (vancomycin-resistant), read-out: MIC; for MIC-fold improvement vs. vancomycin: VRE 29, ratio of MIC of vancomycin and MIC of analogue
Description: as §1

[5] = tested on: E. faecalis VRE 37; experiment: MIC, broth microdilution, vancomycin-resistant E. faecalis VRE 37 (VanA); format: cell-based, Enterococcus faecalis; details: for MIC: Enterococcus faecalis VRE 37 (vancomycin-resistant), read-out: MIC; for MIC-fold improvement vs. vancomycin: VRE 37, ratio of MIC of vancomycin and MIC of analogue
Description: as §1

[6] = tested on: Murine leukemia (L1210) cells; experiment: Cytostatic activity, L1210 cell proliferation; format: cell-based; details: mean ± SD of three experiments; highest concentration tested 250 µM; 2 days; read-out: Toxicity (IC50) L1210
Description: (§2) Murine leukemia (L1210), human T-lymphocyte (CEM) and the human cervix carcinoma (HeLa) cell line were suspended at 300,000–500,000 cells/mL of culture medium, and 100 μL of a cell suspension was added to 100 μL of an appropriate dilution of the test compounds in wells of 96-well microtiter plates. After incubation at 37°C for 2 (L1210), 3 (CEM), or 4 (HeLa) days, the cell number was determined using a Coulter counter. The IC50 was defined per cell type as the compound concentration required to inhibit cell proliferation by 50% compared to the negative control ([Glowacka et al., 2017]).

[7] = tested on: human T-lymphocyte (CEM) cells; experiment: Cytostatic activity, CEM cell proliferation; format: cell-based; details: mean ± SD of three experiments; highest concentration tested 250 µM; 3 days; read-out: Toxicity (IC50) CEM
Description: as §2

[8] = tested on: human cervix carcinoma (HeLa) cells; experiment: Cytostatic activity, HeLa cell proliferation; format: cell-based; details: mean ± SD of three experiments; highest concentration tested 250 µM; 4 days; read-out: Toxicity (IC50) HeLa
Description: as §2

[9] = tested on: L1210, CEM and HeLa cell lines; experiment: Cytostatic activity, average or summary over L1210, CEM and HeLa; format: cell-based; details: average of L1210, CEM and HeLa; read-out: Toxicity (IC50) Average
Description: as §2

[10] = tested on: S. aureus VSSA (ATCC 6538); experiment: MIC, broth microdilution, vancomycin-sensitive S. aureus (VSSA/MSSA, ATCC 6538); format: cell-based, Staphylococcus aureus; details: for MIC: Staphylococcus aureus VSSA, read-out: MIC; for MIC-fold improvement vs. vancomycin: VSSA, ratio of MIC of vancomycin and MIC of analogue
Description: as §1

[11] = tested on: S. aureus VISA/HIP5827; experiment: MIC, broth microdilution, vancomycin-intermediate S. aureus VISA HIP5827; format: cell-based, Staphylococcus aureus; details: for MIC: Staphylococcus aureus VISA/HIP5827, read-out: MIC; for MIC-fold improvement vs. vancomycin: VISA/HIP5827, ratio of MIC of vancomycin and MIC of analogue
Description: as §1

[12] = tested on: S. aureus VRSA; experiment: MIC, broth microdilution, vancomycin-resistant S. aureus (VRSA); format: cell-based, Staphylococcus aureus; details: for MIC: Staphylococcus aureus VRSA, read-out: MIC; for MIC-fold improvement vs. vancomycin: VRSA, ratio of MIC of vancomycin and MIC of analogue
Description: as §1

[13] = tested on: MRSA KS2; experiment: MIC, broth microdilution, MRSA KS2; format: cell-based, Staphylococcus aureus; details: for MIC-fold improvement vs. vancomycin: MRSA KS2, ratio of MIC of vancomycin and MIC of analogue; for MIC: Staphylococcus aureus MRSA KS2, read-out: MIC
Description: as §1

[14] = tested on: MRSA KS6; experiment: MIC, broth microdilution, MRSA KS6; format: cell-based, Staphylococcus aureus; details: for MIC-fold improvement vs. vancomycin: MRSA KS6, ratio of MIC of vancomycin and MIC of analogue; for MIC: Staphylococcus aureus MRSA KS6, read-out: MIC
Description: as §1

[15] = tested on: MRSA KS89; experiment: MIC, broth microdilution, MRSA KS89; format: cell-based, Staphylococcus aureus; details: for MIC-fold improvement vs. vancomycin: MRSA KS8, ratio of MIC of vancomycin and MIC of analogue; for MIC: Staphylococcus aureus MRSA KS8, read-out: MIC
Description: as §1

[16] = tested on: MRSA KS1; experiment: MIC, broth microdilution, MRSA KS1; format: cell-based, Staphylococcus aureus; details: for MIC-fold improvement vs. vancomycin: MRSA KS1, ratio of MIC of vancomycin and MIC of analogue; for MIC: Staphylococcus aureus MRSA KS1, read-out: MIC
Description: as §1

Row | SMILES | MIC [1] [µM] | MIC-fold improvement vs. vancomycin [1] | MIC [2] [µM] | MIC-fold improvement vs. vancomycin [2] | MIC [3] [µM] | MIC-fold improvement vs. vancomycin [3] | MIC [4] [µM] | MIC-fold improvement vs. vancomycin [4] | MIC [5] [µM] | MIC-fold improvement vs. vancomycin [5] | IC50 [6] [µM] | IC50 [7] [µM] | IC50 [8] [µM] | IC50 [9] [µM] | MIC [10] [µM] | MIC-fold improvement vs. vancomycin [10] | MIC [11] [µM] | MIC-fold improvement vs. vancomycin [11] | MIC [12] [µM] | MIC-fold improvement vs. vancomycin [12] | further results
1 | CNC(CC(C)C)C(=O)NC1C(=O)NC(CC(N)=O)C(=O)NC2C(=O)NC3C(=O)NC(C(=O)NC(C(=O)NCC(=O)Nc4ccc(C(=O)c5ccccc5)cc4)c4cc(O)cc(O)c4-c4cc3ccc4O)C(O)c3ccc(c(Cl)c3)Oc3cc2cc(c3OC2OC(CO)C(O)C(O)C2OC2CC(C)(N)C(O)C(C)O2)Oc2ccc(cc2Cl)C1O (stereo not shown) [Vanc-88] | ≤0.05 | ≥32 | 1.56 (≈ 2.63 µg/mL) | 128 | 12.5 (≈ 21.1 µg/mL) | 32 | 1.56 (≈ 2.63 µg/mL) | 256 | 3.13 (≈ 5.28 µg/mL) | 128 | 127 ± 32 | 32 ± 1 | 98 ± 23 | 86 | 0.39 (≈ 0.657 µg/mL) | 2 | 0.39 (≈ 0.657 µg/mL) | 16 | 0.78 (≈ 1.31 µg/mL) | 128 | MIC-fold improvement vs. vancomycin [13]: 8; MIC [13]: 0.10 µM (≈ 0.169 µg/mL); MIC-fold improvement vs. vancomycin [14]: 2; MIC [14]: 0.39 µM (≈ 0.657 µg/mL); MIC-fold improvement vs. vancomycin [15]: 4; MIC [15]: 0.20 µM (≈ 0.337 µg/mL); MIC-fold improvement vs. vancomycin [16]: 8; MIC [16]: 0.10 µM (≈ 0.169 µg/mL)
2 | CNC(CC(C)C)C(=O)NC1C(=O)NC(CC(N)=O)C(=O)NC2C(=O)NC3C(=O)NC(C(=O)NC(C(=O)NCCCNC(=O)c4ccc(C(C)(C)C)cc4)c4cc(O)cc(O)c4-c4cc3ccc4O)C(O)c3ccc(c(Cl)c3)Oc3cc2cc(c3OC2OC(CO)C(O)C(O)C2OC2CC(C)(N)C(O)C(C)O2)Oc2ccc(cc2Cl)C1O (stereo not shown) [Vanc-73] | 0.78 (≈ 1.3 µg/mL) | 2 | 6.25 (≈ 10.4 µg/mL) | 32 | 25 (≈ 41.6 µg/mL) | 16 | 12.5 (≈ 20.8 µg/mL) | 32 | 25 (≈ 41.6 µg/mL) | 16 | 108 ± 42 | 130 ± 6 | 81 ± 6 | 106 | 0.78 (≈ 1.3 µg/mL) | 1 | 1.56 (≈ 2.6 µg/mL) | 4 | 6.25 (≈ 10.4 µg/mL) | 16 | MIC-fold improvement vs. vancomycin [13]: 2; MIC [13]: 0.39 µM (≈ 0.65 µg/mL); MIC-fold improvement vs. vancomycin [14]: 2; MIC [14]: 0.39 µM (≈ 0.65 µg/mL); MIC-fold improvement vs. vancomycin [15]: 2; MIC [15]: 0.39 µM (≈ 0.65 µg/mL); MIC-fold improvement vs. vancomycin [16]: 1; MIC [16]: 0.78 µM (≈ 1.3 µg/mL)
3 | CN[C@H](CC(C)C)C(=O)N[C@H]1C(=O)N[C@@H](CC(N)=O)C(=O)N[C@H]2C(=O)N[C@H]3C(=O)N[C@H](C(=O)N[C@H](C(=O)NCC(=O)Nc4cc(C)ccc4O)c4cc(O)cc(O)c4-c4cc3ccc4O)[C@H](O)c3ccc(c(Cl)c3)Oc3cc2cc(c3O[C@@H]2O[C@H](CO)[C@@H](O)[C@H](O)[C@H]2O[C@H]2C[C@](C)(N)[C@H](O)[C@H](C)O2)Oc2ccc(cc2Cl)[C@H]1O [Vanc-18] | 1.56 (≈ 2.51 µg/mL) | 1 | 12.5 (≈ 20.1 µg/mL) | 16 | 25 (≈ 40.3 µg/mL) | 16 | 25 (≈ 40.3 µg/mL) | 16 | 50 (≈ 80.6 µg/mL) | 8 | > 250 | > 250 | > 250 | > 250 | 0.78 (≈ 1.26 µg/mL) | 1 | 0.78 (≈ 1.26 µg/mL) | 8 | 25 (≈ 40.3 µg/mL) | 4 | MIC-fold improvement vs. vancomycin [13]: 2; MIC [13]: 0.39 µM (≈ 0.628 µg/mL); MIC-fold improvement vs. vancomycin [14]: 1; MIC [14]: 0.78 µM (≈ 1.26 µg/mL); MIC-fold improvement vs. vancomycin [15]: 1; MIC [15]: 0.78 µM (≈ 1.26 µg/mL); MIC-fold improvement vs. vancomycin [16]: 1; MIC [16]: 0.78 µM (≈ 1.26 µg/mL)
4 | CN[C@H](CC(C)C)C(=O)N[C@H]1C(=O)N[C@@H](CC(N)=O)C(=O)N[C@H]2C(=O)N[C@H]3C(=O)N[C@H](C(=O)N[C@H](C(=O)NCC(=O)Nc4ccc(F)cc4F)c4cc(O)cc(O)c4-c4cc3ccc4O)[C@H](O)c3ccc(c(Cl)c3)Oc3cc2cc(c3O[C@@H]2O[C@H](CO)[C@@H](O)[C@H](O)[C@H]2O[C@H]2C[C@](C)(N)[C@H](O)[C@H](C)O2)Oc2ccc(cc2Cl)[C@H]1O [Vanc-16] | 0.78 (≈ 1.26 µg/mL) | 2 | 12.5 (≈ 20.2 µg/mL) | 16 | 25 (≈ 40.4 µg/mL) | 16 | >50 | <8 | 50 (≈ 80.9 µg/mL) | 8 | > 250 | > 250 | 184 ± 60 | 228 | 0.78 (≈ 1.26 µg/mL) | 1 | 0.78 (≈ 1.26 µg/mL) | 8 | 25 (≈ 40.4 µg/mL) | 4 | MIC-fold improvement vs. vancomycin [13]: 1; MIC [13]: 0.78 µM (≈ 1.26 µg/mL); MIC-fold improvement vs. vancomycin [14]: 1; MIC [14]: 0.78 µM (≈ 1.26 µg/mL); MIC-fold improvement vs. vancomycin [15]: 1; MIC [15]: 0.78 µM (≈ 1.26 µg/mL); MIC-fold improvement vs. vancomycin [16]: 1; MIC [16]: 0.78 µM (≈ 1.26 µg/mL)
